Measurements reported in patent publication US12172983B2, “EGFR inhibitors” (Blueprint Medicines Corporation, priority 2019, dated 2024).
Read-outs that look alike come from different tables or passages of the source.

Legend:
[1] = system: phosphorylation of EGFR (Tyr1068) in NCI-H1975 cell line that harbors the EGFR L858R T790M mutations; test: NCI-H1975 pEGFR AlphaLISA assay; type: cell-based; conditions: 4-5 hours incubation, read-out: Ext pEGFR H1975
Method in brief: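 NCI-H1975 cells (EGFR L858R/T790M) seeded overnight, then treated with compound for 4-5 h at 37 °C/5% CO2. After lysis, p-EGFR (Tyr1068) quantified by AlphaLISA SureFire Ultra with acceptor then donor beads; IC50 fitted from percent inhibition versus log concentration.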

EGFR (L858R T790M C797S) = target: T1, EGFR (L858R T790M C797S) (Homo sapiens, UniProt P00533, C797S/L858R/T790M); test: Biochemical EGFR inhibition assay (Caliper mobility shift), EGFR LRTMCS mutant; conditions: inhibitory activity against EGFR LRTMCS mutant; apparent IC50; read-out: Ext Enz LRTMCS
T1 construct: purchased SignalChem E10-122VG
T1 sequence (P00533 25-1210 T790M/C797S/L858R): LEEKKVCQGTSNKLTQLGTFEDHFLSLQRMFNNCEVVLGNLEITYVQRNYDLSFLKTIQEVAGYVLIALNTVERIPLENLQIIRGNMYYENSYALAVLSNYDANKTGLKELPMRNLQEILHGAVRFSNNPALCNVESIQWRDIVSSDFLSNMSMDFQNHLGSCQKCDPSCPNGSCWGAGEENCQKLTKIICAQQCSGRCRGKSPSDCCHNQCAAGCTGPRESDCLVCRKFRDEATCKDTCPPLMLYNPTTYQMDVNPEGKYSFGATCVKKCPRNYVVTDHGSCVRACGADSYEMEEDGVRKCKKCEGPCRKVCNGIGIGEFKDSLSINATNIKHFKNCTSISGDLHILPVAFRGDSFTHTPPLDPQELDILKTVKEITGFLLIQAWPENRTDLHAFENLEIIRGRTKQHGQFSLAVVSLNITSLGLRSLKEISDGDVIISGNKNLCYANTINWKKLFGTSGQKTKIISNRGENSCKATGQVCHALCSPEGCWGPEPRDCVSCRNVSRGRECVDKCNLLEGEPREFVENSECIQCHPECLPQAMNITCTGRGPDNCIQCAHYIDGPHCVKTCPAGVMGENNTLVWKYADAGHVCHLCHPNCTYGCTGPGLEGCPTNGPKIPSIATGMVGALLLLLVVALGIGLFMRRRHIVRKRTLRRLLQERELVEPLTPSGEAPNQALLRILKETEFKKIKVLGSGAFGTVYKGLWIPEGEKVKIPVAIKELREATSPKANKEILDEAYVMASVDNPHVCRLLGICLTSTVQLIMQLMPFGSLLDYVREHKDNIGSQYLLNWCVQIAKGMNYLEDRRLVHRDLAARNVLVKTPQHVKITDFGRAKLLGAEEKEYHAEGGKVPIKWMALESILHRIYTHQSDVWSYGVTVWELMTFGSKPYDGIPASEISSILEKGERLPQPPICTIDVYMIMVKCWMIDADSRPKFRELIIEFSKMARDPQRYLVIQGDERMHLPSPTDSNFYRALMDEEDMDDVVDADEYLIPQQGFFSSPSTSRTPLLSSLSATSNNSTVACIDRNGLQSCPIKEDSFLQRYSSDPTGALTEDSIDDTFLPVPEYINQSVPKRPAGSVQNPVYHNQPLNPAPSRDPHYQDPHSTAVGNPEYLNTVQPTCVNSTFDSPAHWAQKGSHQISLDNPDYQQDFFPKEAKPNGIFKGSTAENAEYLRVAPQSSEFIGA
Method in brief: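 Caliper mobility shift read-out: product and substrate peptides separated by electrophoresis and quantified. Reactions at 25° C. taken to 10–20% peptide phosphorylation, quenched with 35 mM EDTA. Apparent IC50 from percent activity vs log [compound].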

[2] = Homo sapiens, NCI-H1975, inhibition of phosphorylation of mutant EGFR in NCI-H1975 cells

| Structure (SMILES) | IC50 [1, 2] [nM] | IC50 (EGFR (L858R T790M C797S)) [nM] | IC50 ([1]; inhibition of phosphorylation of mutant EGFR in NCI-H1975 cells) [nM] |
| --- | --- | --- | --- |
| CC(C)c1ccc(N2C[C@H](CS(C)(=O)=O)[C@H]2C)c2cnc(Nc3ccnc(N4CC[C@](F)(CO)C4)n3)cc12 (single isomer, unassigned) [Compound 270, [(3R)-3-fluoro-1-[4-({8-[(2R,3S)-3-(methanesulfonylmethyl)-2-methylazetidin-1-yl]-5-(propan-2-yl)isoquinolin-3-yl}amino)pyrimidin-2-yl]pyrrolidin-3-yl]methanol or [(3S)-3-fluoro-1-[4-({8-[(2R,3S)-3-(methanesulfonylmethyl)-2-methylazetidin-1-yl]-5-(propan-2-yl)isoquinolin-3-yl}amino)pyrimidin-2-yl]pyrrolidin-3-yl]methanol] | 10.1 to 20 | ≤ 15 |  |
| CCS(=O)(=O)C[C@@H]1CN(c2ncc(C(C)C)c3cc(Nc4ccnc(N5CC[C@@H](O)[C@@](C)(F)C5)n4)ncc23)[C@H]1C (single isomer, unassigned) [Compound 189] | ≤ 10 | ≤ 15 |  |
| CO[C@@H]1CN(c2nccc(Nc3cc4c(C(C)C)ccc(N5C[C@H](CS(C)(=O)=O)[C@H]5C)c4cn3)n2)CC[C@@H]1O (single isomer, unassigned) [Compound 99, (3R,4S)-1-[4-({8-[(2R,3S)-3-(methanesulfonylmethyl)-2-methylazetidin-1-yl]-5-(propan-2-yl)isoquinolin-3-yl}amino)pyrimidin-2-yl]-3-methoxypiperidin-4-ol or (3S,4R)-1-[4-({8-[(2R,3S)-3-(methanesulfonylmethyl)-2-methylazetidin-1-yl]-5-(propan-2-yl)isoquinolin-3-yl}amino)pyrimidin-2-yl]-3-methoxypiperidin-4-ol] | 10.1 to 20 | ≤ 15 |  |
| CO[C@@H]1CN(c2nccc(Nc3cc4c(C(C)C)ccc(N5CC(CS(C)(=O)=O)C5)c4cn3)n2)C[C@H](F)[C@@H]1O (single isomer, unassigned) [Compound 149, (3S,4R,5R)-3-fluoro-1-[4-({8-[3-(methanesulfonylmethyl)azetidin-1-yl]-5-(propan-2-yl)isoquinolin-3-yl}amino)pyrimidin-2-yl]-5-methoxypiperidin-4-ol or (3R,4S,5S)-3-fluoro-1-[4-({8-[3-(methanesulfonylmethyl)azetidin-1-yl]-5-(propan-2-yl)isoquinolin-3-yl}amino)pyrimidin-2-yl]-5-methoxypiperidin-4-ol] | 10.1 to 20 | 15.1 to 20 |  |
| CCS(=O)(=O)CC1CN(c2ccc(C(C)C)c3cc(Nc4ccnc(N5CC[C@H](OC)[C@H](F)C5)n4)ncc23)C1 [Compound 262, 8-{3-[(ethanesulfonyl)methyl]azetidin-1-yl}-N-{2-[(3R,4S)-3-fluoro-4-methoxypiperidin-1-yl]pyrimidin-4-yl}-5-(propan-2-yl)isoquinolin-3-amine] | ≤ 10 | ≤ 15 |  |
| CO[C@H]1CN(c2nccc(Nc3cc4c(C(C)C)ccc(N5CC(CS(C)(=O)=O)C5)c4cn3)n2)C[C@@H](F)[C@H]1O (racemic) [Compound 147, (3S,4R,5R)-3-fluoro-1-(4-((5-isopropyl-8-(3-((methylsulfonyl)methyl)azetidin-1-yl)isoquinolin-3-yl)amino)pyrimidin-2-yl)-5-methoxypiperidin-4-ol and (3R,4S,5S)-3-fluoro-1-(4-((5-isopropyl-8-(3-((methylsulfonyl)methyl)azetidin-1-yl)isoquinolin-3-yl)amino)pyrimidin-2-yl)-5-methoxypiperidin-4-ol] | 10.1 to 20 | ≤ 15 |  |
| CC(C)c1ccc(N2CC(CS(C)(=O)=O)C2)c2cnc(Nc3ccnc(N4CC[C@@H](OCCO)[C@@H](F)C4)n3)cc12 [Compound 205, 2-{[(3S,4R)-3-fluoro-1-[4-({8-[3-(methanesulfonylmethyl)azetidin-1-yl]-5-(propan-2-yl)isoquinolin-3-yl}amino)pyrimidin-2-yl]piperidin-4-yl]oxy}ethan-1-ol] | ≤ 10 | ≤ 15 |  |
| CCS(=O)(=O)CC1CN(c2ncc(C(C)C)c3cc(Nc4ccnc(N5CCN[C@@H](C(F)F)C5)n4)ncc23)C1 (single isomer, unassigned) [Compound 160, N-{2-[(3R)-3-(difluoromethyl)piperazin-1-yl]pyrimidin-4-yl}-8-{3-[(ethanesulfonyl)methyl]azetidin-1-yl}-5-(propan-2-yl)-2,7-naphthyridin-3-amine or N-{2-[(3S)-3-(difluoromethyl)piperazin-1-yl]pyrimidin-4-yl}-8-{3-[(ethanesulfonyl)methyl]azetidin-1-yl}-5-(propan-2-yl)-2,7-naphthyridin-3-amine] | 30.1 to 50 | 15.1 to 20 |  |
| Cc1cc(C(C)C)c2cc(Nc3ccnc(N4CC[C@@H](O)[C@@](C)(F)C4)n3)ncc2c1N1CC(CS(C)(=O)=O)C1 (single isomer, unassigned) [Compound 116] | 10.1 to 20 | ≤ 15 |  |
| CC(C)c1cc(F)c(N2CC(CS(C)(=O)=O)C2)c2cnc(Nc3ccnc(N4CC[C@@H](O)[C@@](C)(F)C4)n3)cc12 (single isomer, unassigned) [Compound 157] | ≤ 10 | ≤ 15 |  |
| CO[C@@H]1CCN(c2nncc(Nc3cc4c(C(C)C)ccc(N5C[C@H](CS(C)(=O)=O)[C@H]5C)c4cn3)n2)C[C@@H]1F [Compound 134, N-(3-((3S,4R)-3-fluoro-4-methoxypiperidin-1-yl)-1,2,4-triazin-5-yl)-5-isopropyl-8-((2R,3S)-2-methyl-3-(methylsulfonylmethyl)azetidin-1-yl)isoquinolin-3-amine] | ≤ 10 | ≤ 15 |  |
| C[C@]1(F)CN(c2nccc(Nc3cc4c(C5CC5)ccc(N5CC(CS(C)(=O)=O)C5)c4cn3)n2)CC[C@H]1O (single isomer, unassigned) [Compound 51] | 20.1 to 30 | ≤ 15 |  |
| [2H]C([2H])([2H])O[C@@H]1CCN(c2nccc(Nc3cc4c(C(C)C)ncc(N5C[C@H](CS(C)(=O)=O)[C@H]5C)c4cn3)n2)C[C@@H]1F (single isomer, unassigned) [Compound 161, N-{2-[(3S,4R)-3-fluoro-4-(^2H3)methoxypiperidin-1-yl]pyrimidin-4-yl}-8-[(2R,3S)-3-(methanesulfonylmethyl)-2-methylazetidin-1-yl]-5-(propan-2-yl)-2,6-naphthyridin-3-amine or N-{2-[(3R,4S)-3-fluoro-4-(^2H3)methoxypiperidin-1-yl]pyrimidin-4-yl}-8-[(2R,3S)-3-(methanesulrfonylmethyl)-2-methylazetidin-1-yl]-5-(propan-2-yl)-2,6-naphthyridin-3-amine] | ≤ 10 | ≤ 15 |  |
| CC(C)c1ccc(N2C[C@H](CS(C)(=O)=O)[C@H]2C)c2cnc(Nc3ccnc(N4CC[C@@H](OCCN(C)C)C(F)(F)C4)n3)cc12 (single isomer, unassigned) [Compound 305, N-{2-[(4S)-4-[2-(dimethylamino)ethoxy]-3,3-difluoropiperidin-1-yl]pyrimidin-4-yl}-8-[(2R,3S)-3-(methanesulfonylmethyl)-2-methylazetidin-1-yl]-5-(propan-2-yl)isoquinolin-3-amine or N-{2-[(4R)-4-[2-(dimethylamino)ethoxy]-3,3-difluoropiperidin-1-yl]pyrimidin-4-yl}-8-[(2R,3S)-3-(methanesulfonylmethyl)-2-methylazetidin-1-yl]-5-(propan-2-yl)isoquinolin-3-amine] |  | ≤ 15 | ≤ 10 |
| COC1CCN(c2nncc(Nc3cc4c(C(C)C)ccc(N5CC(CS(C)(=O)=O)C5)c4cn3)n2)CC1 [Compound 23, 8-[3-(methanesulfonylmethyl)azetidin-1-yl]-N-[3-(4-methoxypiperidin-1-yl)-1,2,4-triazin-5-yl]-5-(propan-2-yl)isoquinolin-3-amine] | 10.1 to 20 | ≤ 15 |  |
| CC(C)c1ccc(N2CC(CS(C)(=O)=O)C2)c2cnc(Nc3ccnc(N4CC[C@H](O)[C@@H](C)C4)n3)cc12 (single isomer, unassigned) [Compound 18, (3S,4S)-1-[4-({8-[3-(methanesulfonylmethyl)azetidin-1-yl]-5-(propan-2-yl)isoquinolin-3-yl}amino)pyrimidin-2-yl]-3-methylpiperidin-4-ol or (3R,4R)-1-[4-({8-[3-(methanesulfonylmethyl)azetidin-1-yl]-5-(propan-2-yl)isoquinolin-3-yl}amino)pyrimidin-2-yl]-3-methylpiperidin-4-ol] | ≤ 10 | ≤ 15 |  |
| CC(C)c1ccc(N2CC(CS(C)(=O)=O)C2)c2cnc(Nc3ccnc(N4CC[C@@H](O)[C@@H](F)C4)n3)cc12 [Compound 28, (3S,4R)-3-fluoro-1-[4-({8-[3-(methanesulfonylmethyl)azetidin-1-yl]-5-(propan-2-yl)isoquinolin-3-yl}amino)pyrimidin-2-yl]piperidin-4-ol] | ≤ 10 | ≤ 15 |  |
| CCS(=O)(=O)CC1CN(c2ccc(C(C)C)c3cc(Nc4ccnc(N5CC[C@@H](OC)[C@@H](F)C5)n4)ncc23)C1 [Compound 261, 8-{3-[(ethanesulfonyl)methyl]azetidin-1-yl}-N-{2-[(3S,4R)-3-fluoro-4-methoxypiperidin-1-yl]pyrimidin-4-yl}-5-(propan-2-yl)isoquinolin-3-amine] | ≤ 10 | ≤ 15 |  |
